Measurements taken from US12144824B2, “Method for enhancing embryo implantation” (The Flinders University of South Australia, priority 2018, dated 2024).

Experiments:
[1] = system: murine day 3 embryos; assay: Mouse embryo development and blastocyst outgrowth assay on fibronectin-coated plates; format: cell-based; details: short term exposure
Method: Ishikawa cells were seeded onto 2-well chamber slides in Ishikawa medium until they reached 80-90% confluence. Then, 5 minutes prior to exposure to metal implants, the medium was changed to G2 embryo culture medium, and the Ishikawa cells exposed to copper, zinc or copper-zinc bimetal implants for either 2 or 5 minutes duration (or remained unexposed (control)), and the resulting G2 culture media collected 8 hours later.
To determine whether metal ions were capable of enhancing embryo implantation, post-compaction mouse embryos were exposed to the “conditioned media” prior to undergoing outgrowth assays. In particular, pronucleate oocytes were collected from superovulated female F1 mice ˜21-22 hours post-hCG. Following cumulus cell removal, oocytes were cultured in 20 μl drops (10 embryos/drop) of G1 medium under paraffin oil (Vitrolife) at 37° C. in 6% CO2, 5% O2 and 89% N2. After 48 hours, compacting and morulae stage embryos were randomly transferred to culture in either (i) control G2 medium (Vitrolife) that had not been exposed to Ishikawa cells; (ii) individual culture in 2 μl of control, Ishikawa exposed G2; or (iii) individual culture in 2 μl drops of 2 minute copper-zinc bimetal implant exposed G2 medium. After 48 hours, the capacity of blastocysts to undergo outgrowth was assessed in the following manner. […] All images were collected and analysed at matching magnification.

[2] = system: LIF production, human Ishikawa endometrial adenocarcinoma cell line; assay: LIF production by Ishikawa cells exposed to copper or zinc chloride solutions (multiplex immunoassay)
Method: (§1) The human Ishikawa endometrial adenocarcinoma cell line (Sigma-Aldrich; St Louis, MO, United States of America) was used to model the endometrium's response to copper and zinc metal ions (Cu^2+ and Zn^2+). Cells were grown in T75 flasks (Nalge Nunc International, Rochester, NY, United States of America) in Ishikawa medium, consisting of αMEM (Sigma-Aldrich) supplemented with 5% foetal bovine serum (Invitrogen Corp, Carlsbad, CA, United States of America), 2 mM glutamine (Sigma-Aldrich) and 1% non-essential amino acids (Sigma-Aldrich) without antibiotics at 37° C. under a gas atmosphere of 5% CO2 in air. Medium was refreshed every 48 hours. Cells were subcultured using 0.25% trypsin/EDTA (Invitrogen). For metal ion exposure experiments, cells were seeded onto 2-well chamber slides (Ibidi, Martinsried, Germany). After the endometrial cells had attached and reached 80-90% confluence they were then exposed to copper and zinc metal ions using two approaches (salt solution or metal implant) as described below.
(§2) Copper or zinc chloride (Sigma-Aldrich) was dissolved in Ishikawa medium to produce salt solutions at various concentrations in the range of 0.2 μM and 200 μM, before being applied to Ishikawa cells seeded into 2-well chamber slides for a period of 8 hours. Following the 8 hours exposure, culture media were removed, centrifuged at 1000 g for 10 minutes at 4° C. to pellet any cellular debris, and then the supernatants were stored in Eppendorf tubes at −80° C. Subsequently, the supernatants were assayed for both LIF and VEGF content using a multiplex immunoassay system (elisakit.com, Scoresby, VIC, Australia).

[3] = system: VEGF production, human Ishikawa endometrial adenocarcinoma cell line; assay: VEGF production by Ishikawa cells exposed to copper or zinc chloride solutions (multiplex immunoassay); format: cell-based
Method: Medium was refreshed every 48 hours. Cells were subcultured using 0.25% trypsin/EDTA (Invitrogen).

[4] = system: LIF production, human Ishikawa endometrial adenocarcinoma cell line
Method: as §1, §2

[Cu+2] [copper ions]
toxicity to pre-implantation embryo development [1]: not significant

[Cl][Cu][Cl] [CuCl2, copper chloride]
increase in endometrial LIF production ([2]; CuCl2 200 μM): 4 fold
LIF production increase above baseline ([2]; CuCl2 200 μM, 8 hours): 420%
lowest amount confirmed to elicit an increase in endometrial LIF ([2]; Example 1): 20 µM
concentration producing a significant increase in LIF production ([2]; salt solution in Ishikawa medium, 8 hours exposure): exceeding 2 μM
concentration of peak VEGF production ([3]; 8 hours exposure): 100 µM
concentration producing a significant increase in VEGF production ([3]; 8 hours exposure): above 20 μM
lowest amount confirmed to elicit an increase in endometrial VEGF ([3]; Example 1): 20 µM
concentration exceeding which a relative decline in endometrial VEGF production was observed ([3]; in vitro): exceeding 100 μM
toxicity in relation to LIF production [4]: No toxicity

[Cl-].[Cl-].[Zn+2] [ZnCl2, zinc chloride]
dose above which toxicity, with a reduction in LIF production, was observed ([2]; 8 hours exposure): exceeding 150 μM
concentration from which VEGF production appeared reduced ([3]; 8 hours exposure): ≥ 150 µM
increase in VEGF compared to controls ([3]; 8 hours exposure): no significant increase

[Zn+2] [zinc ions]
toxicity to pre-implantation embryo development [1]: not significant
